Like-named read-outs stand apart in the source and are kept apart here.
Columns and labels:
Format in all cases: biochemical
SIRT1 = biological target: T1, SIRT1 (Homo sapiens, UniProt Q96EB6); assay: Fluorescence-based deacetylation assay (ZMAL-assay), SIRT1; details: 37 °C, assay limit 0.10 µM
T1 construct: For assay experiments, strep-tagged human SIRT1134−747 and SIRT256-356 were expressed and purified as previously; Strep-tag; made in house; host or cells: E. coli BL21 Star (DE3)
T1 sequence (Q96EB6 134-747 limits assumed): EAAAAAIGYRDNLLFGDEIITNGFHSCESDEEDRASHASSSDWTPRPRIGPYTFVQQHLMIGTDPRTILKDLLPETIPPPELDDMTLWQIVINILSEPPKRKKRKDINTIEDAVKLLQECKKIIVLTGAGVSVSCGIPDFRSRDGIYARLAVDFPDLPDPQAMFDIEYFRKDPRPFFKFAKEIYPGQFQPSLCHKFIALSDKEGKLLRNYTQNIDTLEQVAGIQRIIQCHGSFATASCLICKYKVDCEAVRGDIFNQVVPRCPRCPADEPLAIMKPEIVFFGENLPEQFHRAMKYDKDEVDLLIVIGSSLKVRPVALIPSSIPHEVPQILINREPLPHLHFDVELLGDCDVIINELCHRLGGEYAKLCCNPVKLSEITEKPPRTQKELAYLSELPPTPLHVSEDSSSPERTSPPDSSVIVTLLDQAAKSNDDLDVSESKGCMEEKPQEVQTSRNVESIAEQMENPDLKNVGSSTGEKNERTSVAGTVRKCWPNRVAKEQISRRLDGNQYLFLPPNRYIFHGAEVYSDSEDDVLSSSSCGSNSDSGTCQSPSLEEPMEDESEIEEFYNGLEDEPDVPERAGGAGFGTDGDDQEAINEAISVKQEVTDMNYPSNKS
Protocol: (§1) Determination of IC50 values (SIRT1, SIRT2, SIRT3) via fluorescence-based deacetylation assay […]
(§2) The fluorescence-based deacetylation assay was conducted in a black 384-well microplate (OptiPlate-384 F, PerkinElmer) with a total volume of 30 µL per well and a final DMSO concentration of 2% (v/v) according to a […]
(§3) concentration of 100 nM) in assay buffer (50 mM Tris, 137 mM NaCl, 2.7 mM KCl, 1m MgCl2, 0.01% Tween, 0.05 mg/mL BSA, 0.2 mM TCEP, pH 8.0), 5 µL of substrate (ZMAL, final concentration of 10.5 µM), 5 µL of NAD+ (final concentration of 500 µM) and 10 µL of inhibitor solution (final concentration of 30 µM – 0.014 µM, serial 1:3 dilutions) was incubated at 37 °C and 300 rpm for 4 h. A solution of trypsin (final concentration of 0.5 mg/mL) and nicotinamide (final concentration of 4 mM) was added and incubated at 37 °C and 300 rpm for 30 min to stop the reaction. Samples with 2% (v/v) DMSO instead of inhibitor were prepared as a positive control, and samples with 2% (v/v) DMSO instead of SIRT enzyme were prepared as a negative control. Fluorescence intensity was measured with a microplate reader (λEx = 380-10 nm, λEm = 460 nm, BMG POLARstar Optima, BMG Labtech, Germany). IC50 values were then determined using a nonlinear regression fit with Origin Pro 2019 software. All experiments were performed at least in duplicates. […]

SIRT2 = biological target: T2, SIRT2 (Homo sapiens, UniProt Q8IXJ6); assay: Fluorescence-based demyristoylation assay (BSA-Assay)
T2 construct: For assay experiments, strep-tagged human SIRT1134−747 and SIRT256-356 were expressed and purified as previously; Strep-tag; made in house; host or cells: E. coli BL21 Star (DE3)
T2 sequence (Q8IXJ6 56-356 limits assumed): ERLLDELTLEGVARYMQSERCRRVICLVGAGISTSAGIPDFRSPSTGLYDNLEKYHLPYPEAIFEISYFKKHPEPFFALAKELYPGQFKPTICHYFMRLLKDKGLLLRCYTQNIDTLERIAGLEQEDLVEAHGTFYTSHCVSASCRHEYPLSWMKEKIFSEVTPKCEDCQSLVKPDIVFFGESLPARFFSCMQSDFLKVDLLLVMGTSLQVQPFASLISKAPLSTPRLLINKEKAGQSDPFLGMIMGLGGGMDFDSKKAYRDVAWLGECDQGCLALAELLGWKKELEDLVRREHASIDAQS
Protocol: Determination of IC50 values (SIRT2) via fluorescence-based demyristoylation assay (BSA-Assay) The fluorescence-based demyristoylation assay was conducted in a continuous manner in a black 384-well microplate (OptiPlate-384 F, PerkinElmer) with a total volume of 40 µL per well and a final DMSO concentration of 5% (v/v), following a published procedure.[9] A mixture of 14 µL SIRT2 (final concentration of 1 nM) in assay buffer (20 mM Tris, 150 mM NaCl, […], pH 7.8) freshly supplemented with 2 mg/mL of BSA, 14 µL of substrate (F4, KM = 33 ± 5 nM[9], final concentration of 40 nM) and 2 µL of inhibitor solution (final concentration of 100 µM – 0.002 µM, serial 1:2 or 1:4 dilutions) was incubated at 25 °C and 350 rpm for 5 min. Samples with 5% (v/v) DMSO instead of inhibitor were measured as a positive control, and samples with assay buffer and 5% (v/v) DMSO instead of SIRT2 were measured as a negative control. The reaction was started with the addition of 10 µL NAD+ (final concentration of 500 µM) and the product formation was immediately monitored by the change of the fluorescence intensity at 25 °C for 20 min. For NAD+ preincubation experiments, instead of the substrate, 10 µL of NAD+ (final concentration of 500 µM) was added to the solution and incubated at 25 °C and 350 rpm for 15 min. The reaction was started with the addition of 14 µL substrate (final concentration of 40 nM) and the product formation was immediately monitored by the change of the fluorescence intensity at 25 °C every 60 s for 20 min using a microplate reader (λEx = 485 nm, λEm = 530-10 nm, BMG POLARstar Optima, BMG Labtech, Germany).
The activity was normalized using the positive control as 100% and the negative control as 0%. The normalized activity (v/v0) was plotted as a function of the logarithm of the inhibitor concentration [I], and a nonlinear fit was performed according to the following equation to determine the IC50 value.[9] […]

SIRT3 = biological target: T3, SIRT3 (Homo sapiens, UniProt Q9NTG7); assay: Fluorescence-based deacetylation assay (ZMAL-assay), SIRT3; details: 37 °C, assay limit 0.10 µM
T3 construct: Human SIRT3118-395 was expressed and purified as previously described.[5]; made in house
T3 sequence (Q9NTG7 118-395 limits assumed): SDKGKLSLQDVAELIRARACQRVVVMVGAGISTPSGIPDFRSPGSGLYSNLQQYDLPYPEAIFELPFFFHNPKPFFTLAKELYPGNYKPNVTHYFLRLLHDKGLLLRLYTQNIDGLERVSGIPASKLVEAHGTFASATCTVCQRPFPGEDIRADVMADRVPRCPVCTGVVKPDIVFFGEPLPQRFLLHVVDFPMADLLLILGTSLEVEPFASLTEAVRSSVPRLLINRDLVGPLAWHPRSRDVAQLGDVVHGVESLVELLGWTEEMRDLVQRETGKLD
Protocol: as §1, §2, §3

[1] = BSA-Assay, 25 °C, read-out: SIRT2 (demyr.) IC50

`COCCn1cc(COc2cccc(Cc3cnc(NC(=O)CSc4nc(C)cc(C)n4)s3)c2)nn1` [Compound 1, reference compound] was tested, and the “SIRT1 (deac.) IC50” value (SIRT1) was “n.i”, the IC50 (SIRT2; [1]) was 660 ± 100 nM and the “SIRT3 (deac.) IC50” value (SIRT3) was “n.i”.
In the case of `Cc1cc(C)nc(SCC(=O)Nc2ncc(Cc3cccc(OCc4c[nH]nn4)c3)s2)n1` [Compound 7], the “SIRT1 (deac.) IC50” value (SIRT1) is reported as “n.i”, the IC50 (SIRT2; [1]) is reported as greater than 10000 nM and the “SIRT3 (deac.) IC50” value (SIRT3) is reported as “n.i”.
`CCCCCCCCCCCCc1cn(CCCC[C@H](NC(=O)[C@H](CCCCN)NC(=O)[C@@H]2CCCN2C(=O)[C@H](CC(C)C)NC(=O)[C@H](C)NC(=O)[C@H](CCC(=O)O)NC(C)=O)C(=O)N[C@H](C(=O)NCC(=O)NCC(N)=O)[C@@H](C)O)nn1` [Compound 6] was tested, and the IC50 (SIRT1; read-out: SIRT1 (deac.) IC50) was less than 100 nM, the IC50 (SIRT2; 15 min NAD+ preincubation, read-out: IC50, SIRT2 demyristoylation after NAD+ preincubation) was 3.6 ± 0.6 nM and the IC50 (SIRT2; [1]) was 30 ± 10 nM. The IC50 (SIRT2; fatty-acylated substrate, without NAD+ preincubation, read-out: IC50, SIRT2 demyristoylation) was 28 ± 6 nM and the IC50 (SIRT3; read-out: SIRT3 (deac.) IC50) was 130 ± 10 nM.

Reference: article PMC12723449, “From Pharmacophore to Warhead: NAD^+‐Targeting Triazoles as Mechanism‐Based Sirtuin Inhibitors” (Angewandte Chemie (International Ed. in English), 2025)
